Patent US6344179B1, “Fluoralkenyl nortropanes” (Emory University, priority 1999, dated 2002)
“Also recorded” adds a separate entry of the source.

Legend:
rat brain DAT [1] = target: T1, rat brain DAT (Rattus norvegicus, UniProt P23977); test: In vivo selectivity: block with monoamine transporter ligands before [18F]FBCINT in rats; conditions: 60 minutes
T1 construct: from tissue; host or cells: brain of living male Sprague Dawley rats (striatum, cortex, cerebellum dissected)
Experimental: FBCINT. The rats were sacrificed 60 minutes after injection of [^18F] FBCINT and the striatum, cortex, prefrontal cortex, olfactory tubercles and cerebellum were dissected and the uptake of radioactivity determined. The monoamine transporter ligands administered were RTI-113 (DAT), paroxetine (SERT) and reboxetine (NET). […] FBCINT in the DAT transporter rich striatum and olfactory tubercles. […] FBCINT.

rat brain DAT [2] = target: T1, rat brain DAT; test: In vivo specificity: RTI-113 block before the 18F ligand in rats
Experimental: To determine the in vivo specificity of FBNT analogs [^18F] […] 6a, 6d and 6e. The rats were sacrificed 60 minutes after injection of [^18F] […] 6a, 6d and 6e, in the DAT transporter rich striatum.

[3] = PET brain imaging in a rhesus monkey; format: in vivo
Experimental: The regional distribution of E-[^18F] […] Dynamic emission data were acquired using a 35 frame acquisition protocol which included twelve 30 second scans, six one minute scans, six 3 minute scans, five 10 minute scans and six 20 minute scans.

striatal DAT [4] = test: Chase (displacement) study with β-CIT, PET in rhesus monkey; format: in vivo; conditions: for displacement from striatum by β-CIT: PET
Experimental: A chase study with E-[^18F] FBCINT and β-CIT, a DAT ligand, was also performed in the same rhesus monkey. At 195 minutes p.i. 3.0 mg (0.9 μmol/kg) of β-CIT, was administered intravenously and dynamic imaging was continued for an additional 40 minutes (eight 5 minute scans). […] The displacement of E-[^18F] […] The regional distribution and kinetic behavior of E-[^18F] […] FBFNT (6e) were next compared in the brain of awake rhesus monkeys.

[5] = Stability to metabolism and in vivo loss of fluorine-18
[6] = In vivo regional brain tissue distribution of 18F-labeled ligands in rats; parameters: species or system Sprague Dawley rats; conditions: rat; for Regional uptake of radioactivity, Cerebellum / Regional uptake of radioactivity, Cortex (Cx) / Regional uptake of radioactivity, Striatum / Uptake of radioactivity, Blood / Uptake of radioactivity, Bone / Uptake of radioactivity, Brain: i.v., 18F-labeled
From the text: The in vivo regional brain tissue distribution of [^18F]

striatal DAT [7] = test: PET imaging in awake rhesus monkeys; format: in vivo, rhesus monkey
Experimental: The regional kinetics of [^18F] […] Both [^18F] […] [^18F] […] The peak uptake ratio of striatumwcerebellum was 4:1 at 20 minutes for [^18F] […] 6d. The in vivo ratio of [1^18F] […] FECNT, 5:1. [^18F]

DAT [8] = conditions: cited from earlier work
DAT [9] = conditions: non-human primates, within 2 h post injection; cited from earlier work
[10] = 60 min, 5 mg/kg RTI-113 i.v. 15 minutes prior

T1 sequence (P23977 whole entry): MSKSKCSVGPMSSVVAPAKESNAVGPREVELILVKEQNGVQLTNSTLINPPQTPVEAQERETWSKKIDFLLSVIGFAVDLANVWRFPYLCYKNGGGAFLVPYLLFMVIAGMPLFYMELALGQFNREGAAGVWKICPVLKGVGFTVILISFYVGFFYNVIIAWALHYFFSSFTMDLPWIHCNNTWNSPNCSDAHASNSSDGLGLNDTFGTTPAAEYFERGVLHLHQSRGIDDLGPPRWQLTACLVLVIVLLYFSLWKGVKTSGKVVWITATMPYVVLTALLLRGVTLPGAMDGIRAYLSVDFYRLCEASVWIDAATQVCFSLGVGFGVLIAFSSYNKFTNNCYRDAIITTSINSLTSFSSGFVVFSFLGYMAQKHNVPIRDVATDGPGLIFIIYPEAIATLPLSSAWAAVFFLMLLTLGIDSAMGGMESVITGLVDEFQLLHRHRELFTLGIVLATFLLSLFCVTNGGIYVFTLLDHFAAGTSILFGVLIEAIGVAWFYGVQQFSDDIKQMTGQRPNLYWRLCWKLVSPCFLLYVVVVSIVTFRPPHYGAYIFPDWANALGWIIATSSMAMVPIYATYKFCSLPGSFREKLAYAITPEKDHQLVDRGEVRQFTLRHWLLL

Structure (SMILES): COC(=O)C1C(c2ccc(Cl)cc2)CC2CCC1N2C/C=C/CF (stereo not drawn) [6d, N-((E)-4-fluorobut-2-en-1-yl)-2β-carbomethoxy-3β-(4-chlorophenyl)nortropane]
- effect of GBR 12909 on uptake in striatum and olfactory tubercles (rat brain DAT [1]; 5 mg/kg i.v. 15 minutes prior): significantly blocked
- effect of SERT and NET blocking agents on regional brain uptake (rat brain DAT [1]; 5 mg/kg i.v. 15 minutes prior): no effect
- Regional uptake, Cerebellum (rat brain DAT [1]; GBR 12909 5 mg/kg i.v.): 0.15 % dose/g
- Regional uptake, Cortex (CX) (dry tissue) (rat brain DAT [1]; GBR 12909 5 mg/kg i.v.): 0.69 % dose/g
- Regional uptake, Olfactory Tubercle (dry tissue) (rat brain DAT [1]; GBR 12909 5 mg/kg i.v.): 1.07 % dose/g
- Regional uptake, Prefrontal Cx (dry tissue) (rat brain DAT [1]; GBR 12909 5 mg/kg i.v.): 1.02 % dose/g
- Regional uptake, Striatum (dry tissue) (rat brain DAT [1]; GBR 12909 5 mg/kg i.v.): 1.51 % dose/g
- Regional uptake, Cerebellum (rat brain DAT [1]; No Block): 0.13 % dose/g
- Regional uptake, Cortex (CX) (dry tissue) (rat brain DAT [1]; No Block): 0.53 % dose/g
- Regional uptake, Olfactory Tubercle (dry tissue) (rat brain DAT [1]; No Block): 5.26 % dose/g
- Regional uptake, Prefrontal Cx (dry tissue) (rat brain DAT [1]; No Block): 0.74 % dose/g
- Regional uptake, Striatum (dry tissue) (rat brain DAT [1]; No Block): 6.96 % dose/g
- Regional uptake, Cerebellum (rat brain DAT [1]; Paroxetine 5 mg/kg i.v.): 0.10 % dose/g
- Regional uptake, Cortex (CX) (dry tissue) (rat brain DAT [1]; Paroxetine 5 mg/kg i.v.): 0.46 % dose/g
- Regional uptake, Olfactory Tubercle (dry tissue) (rat brain DAT [1]; Paroxetine 5 mg/kg i.v.): 5.06 % dose/g
- Regional uptake, Prefrontal Cx (dry tissue) (rat brain DAT [1]; Paroxetine 5 mg/kg i.v.): 0.67 % dose/g
- Regional uptake, Striatum (dry tissue) (rat brain DAT [1]; Paroxetine 5 mg/kg i.v.): 4.47 % dose/g
- Regional uptake, Cerebellum (rat brain DAT [1]; Reboxetine 5 mg/kg i.v.): 0.12 % dose/g
- Regional uptake, Cortex (CX) (dry tissue) (rat brain DAT [1]; Reboxetine 5 mg/kg i.v.): 0.41 % dose/g
- Regional uptake, Olfactory Tubercle (dry tissue) (rat brain DAT [1]; Reboxetine 5 mg/kg i.v.): 5.74 % dose/g
- Regional uptake, Prefrontal Cx (dry tissue) (rat brain DAT [1]; Reboxetine 5 mg/kg i.v.): 0.77 % dose/g
- Regional uptake, Striatum (dry tissue) (rat brain DAT [1]; Reboxetine 5 mg/kg i.v.): 6.64 % dose/g
- Regional uptake of radioactivity, Cerebellum (rat brain DAT [2]; [10]): 0.12 % dose/g
- Regional uptake of radioactivity, Cortex (Cx) (rat brain DAT [2]; [10]): 0.14 % dose/g
- Regional uptake of radioactivity, Striatum (rat brain DAT [2]; [10]): 0.15 % dose/g
- Uptake of radioactivity, Blood (rat brain DAT [2]; [10]): 0.12 % dose/g
- Uptake of radioactivity, Brain (rat brain DAT [2]; [10]): 0.12 % dose/g
- effect of RTI-113 on uptake in the striatum (rat brain DAT [2]; RTI-113 5 mg/kg i.v. 15 minutes prior, 60 minutes): significantly blocked
- striatum (S) uptake by PET ([3]; 180-210 min): 2.7 μCi/mL
- striatum uptake ([3]; PET): high striatum uptake; also recorded: region of highest uptake in the brain
- displacement from striatum by β-CIT (striatal DAT [4]): striatal washout; also recorded: significant reduction of activity in the striatum
- displacement from striatum by β-CIT (striatal DAT [4]; listed as FBCINT): exhibited reversibility
- washout half-time on displacement by β-CIT (striatal DAT [4]; β-CIT 0.9 μmol/kg i.v. at 195 minutes p.i.): 21 min
- stability to metabolism and in vivo loss of fluorine-18 [5]: stable to metabolism and in vivo loss of the fluorine-18 radioisotope
- clearance from striatal tissue ([6]; at 120 minutes compared to 5 minutes post injection): 50%
- Regional uptake of radioactivity, Cerebellum ([6]; 5 min): 0.52 % dose/g
- Regional uptake of radioactivity, Cortex (Cx) ([6]; 5 min): 0.76 % dose/g
- Regional uptake of radioactivity, Striatum ([6]; 5 min): 1.33 % dose/g
- Uptake of radioactivity, Blood ([6]; 5 min): 0.14 % dose/g
- Uptake of radioactivity, Bone ([6]; 5 min): 0.30 % dose/g
- Uptake of radioactivity, Brain ([6]; 5 min): 0.66 % dose/g
- Regional uptake of radioactivity, Cerebellum ([6]; 30 min): 0.19 % dose/g
- Regional uptake of radioactivity, Cortex (Cx) ([6]; 30 min): 0.40 % dose/g
- Regional uptake of radioactivity, Striatum ([6]; 30 min): 1.31 % dose/g
- Uptake of radioactivity, Blood ([6]; 30 min): 0.16 % dose/g
- Uptake of radioactivity, Bone ([6]; 30 min): 0.80 % dose/g
- Uptake of radioactivity, Brain ([6]; 30 min): 0.29 % dose/g
- Regional uptake of radioactivity, Cerebellum ([6]; 60 min): 0.10 % dose/g
- Regional uptake of radioactivity, Cortex (Cx) ([6]; 60 min): 0.13 % dose/g
- Regional uptake of radioactivity, Striatum ([6]; 60 min): 0.61 % dose/g
- Uptake of radioactivity, Blood ([6]; 60 min): 0.10 % dose/g
- Uptake of radioactivity, Bone ([6]; 60 min): 1.35 % dose/g
- Uptake of radioactivity, Brain ([6]; 60 min): 0.14 % dose/g
- Regional uptake of radioactivity, Cerebellum ([6]; 120 min): 0.13 % dose/g
- Regional uptake of radioactivity, Cortex (Cx) ([6]; 120 min): 0.24 % dose/g
- Regional uptake of radioactivity, Striatum ([6]; 120 min): 0.69 % dose/g
- Uptake of radioactivity, Blood ([6]; 120 min): 0.13 % dose/g
- Uptake of radioactivity, Bone ([6]; 120 min): 1.9 % dose/g
- Uptake of radioactivity, Brain ([6]; 120 min): 0.17 % dose/g
- Regional uptake of radioactivity, Striatum ([6]; 120 min, listed as [F-18]FBCINT): 2.5 % dose/g
- striatal washout / time course of uptake (striatal DAT [7]; awake rhesus monkey, decay corrected): very little if any washout; also recorded: appears constant at 115 minutes post injection
- initial uptake in striatum and cerebellum (striatal DAT [7]; awake rhesus monkeys): high initial uptake in the striatum and very little uptake in the cerebellum

Structure (SMILES): COC(=O)C1C(c2ccc(Cl)cc2)CC2CCC1N2C/C=C/[123I] (stereo not shown) [MMG/142, IPT]
- in vitro selectivity (DA/5-HT) (DAT [8]): ~7
- striatal to cerebellum ratios (DAT [9]): 15 to 1
